Consider 32 molecules from US10308667B2, “Oxadiazolopyridine derivatives for use as ghrelin O-acyl transferase (GOAT) inhibitors” (Boehringer Ingelheim International GmbH, priority 2016, dated 2019).

What is called IC50 is the concentration at which inhibition is half-maximal.

human GOAT, sequence (Q96T53 whole entry): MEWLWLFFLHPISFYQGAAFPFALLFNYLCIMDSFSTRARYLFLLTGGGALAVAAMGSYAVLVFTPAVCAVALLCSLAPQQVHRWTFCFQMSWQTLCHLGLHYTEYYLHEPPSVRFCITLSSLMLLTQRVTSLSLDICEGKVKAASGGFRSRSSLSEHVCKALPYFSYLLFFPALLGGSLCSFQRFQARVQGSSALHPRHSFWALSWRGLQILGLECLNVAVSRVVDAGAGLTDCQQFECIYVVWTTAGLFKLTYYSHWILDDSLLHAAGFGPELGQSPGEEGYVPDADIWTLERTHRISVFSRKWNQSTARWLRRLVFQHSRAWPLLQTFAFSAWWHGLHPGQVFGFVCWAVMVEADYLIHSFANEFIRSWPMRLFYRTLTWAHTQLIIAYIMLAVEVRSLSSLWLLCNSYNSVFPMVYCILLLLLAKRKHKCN

The experiment has as its target human GOAT (Homo sapiens (Human), UniProt Q96T53). Kind of experiment: Determination of hGOAT Activity in HEK293 Cells after Incubation with Test Compound. It counts as cell-based. The following applies: HEK293 cells stably transfected with preproghrelin and human GOAT; octanoate-BSA 100 μM; acyl-ghrelin in medium by ELISA after 5 hours. On the procedure: Determination of hGOAT Activity in HEK293 Cells after Incubation with Test Compound
HEK293 cells stably transfected with two expression vectors, one coding for preproghrelin cDNA and a second for the expression of human GOATcDNA are used as a cellular model. After feeding the cells with octanoic acid for 5 hours, acyl-ghrelin is measured in cell culture medium by an ELISA procedure.
Cellline: Hek293 hGOAT/PPGhrl Clone #1B8Sodium octanoate, Sigma, Cat.-No. C5038
BD Poly-D-Lysin 384-well Plates, black-clear polystyrene BD Bioscience Cat.-No. […] ELISA human acylated Ghrelin Kit purchased from Bertin Pharman (detailed composition of buffers e.g. wash-puffer, ELISA buffer not known)
Cells are plated with a density of 5000 cells/well in 384-well poly-D-lysin plates and incubated for 1 day at 37° C., 5% CO2 in DMEM medium, 10% FCS, 1×NEAA, Puromycin (0.5 μg/ml) and G418 (1 mg/ml). Then the medium is changed to a identical medium without FCS and containing Octanoate-BSA (final concentration 100 μM each) and compound in DMSO (final DMSO concentration 0.3%). After incubation for 5 hours acylghrelin in the medium is measured by ELISA
The medium sample is diluted 1:25 in Elisa buffer, A 25 ul aliquot is transferred to a 384-well ELISA plate previously washed 4 times with 100 μL wash buffer, and 25 μl tracer-solution is added. After incubation overnight (˜20 h) at 4° C. temperature the plate is washed 4 times with 100 μl wash-buffer per well. Finally 50 μl Ellman's reagent is added to each well and the plate is incubated in the dark for 20 minutes. The absorbance is measured at 405 nm in an Envision multilabel reader and the amount of acylated ghrelin is calculated according to a acylated ghrelin standard curve provided in the same plate.
The analysis of the data is performed by calculation of the percentage of acyl-ghrelin produced in the presence of test compound compared to the amount of acyl-ghrelin produced in the vehicle control samples. An inhibitor of the GOAT enzyme will give values between 100% CTL (no inhibition) and 0% CTL (complete inhibition). IC50 values are calculated with Assay Explorer or other suited software based on curve fitting of results of 8 different compound concentrations.
`Cc1nc2nonc2c(N)c1Cc1ncc(C#N)c(N)n1` [Example 45, 4-amino-2-(7-amino-5-methyl-[1,2,5]oxadiazolo[3,4-b]pyridin-6-ylmethyl)pyrimidine-5-carbonitrile] returned an IC50 of 1.2 nM.
Take `Cc1nc2nonc2c(N)c1Cc1ncc(C(F)(F)F)c(N)n1` [Example 46, 2-(7-amino-5-methyl-[1,2,5]oxadiazolo[3,4-b]pyridin-6-ylmethyl)-5-(trifluoromethyl)pyrimidin-4-amine]: the IC50 came out at 0.22 nM.
Under `Cc1nc2nonc2c(N)c1Cc1ccc(Cl)c(C#N)n1` [Example 47, 6-(7-amino-5-methyl-[1,2,5]oxadiazolo[3,4-b]pyridin-6-ylmethyl)-3-chloropyridine-2-carbonitrile] stands 2.4 nM; under `Cc1nc2nonc2c(N)c1Cc1ccc(C(F)(F)F)c(C#N)n1` [Example 48, 6-(7-Amino-5-methyl-[1,2,5]oxadiazolo[3,4-b]pyridin-6-ylmethyl)-3-trifluoromethyl-pyridine-2-carbonitrile], 0.18 nM.
For `Cc1nc2nonc2c(N)c1Cc1ccc(C(F)(F)F)c(C(=O)C(C)C)n1` [Example 49, 1-[6-(7-Amino-5-methyl-[1,2,5]oxadiazolo[3,4-b]pyridin-6-ylmethyl)-3-trifluoromethyl-pyridin-2-yl]-2-methyl-propan-1-one] the value was 0.15 nM; for `Cc1nc2nonc2c(N)c1Cc1ncc(C(F)(F)F)c(Cl)n1` [Example 50, 6-[4-chloro-5-(trifluoromethyl)pyrimidin-2-yl]methyl-5-methyl-[1,2,5]oxadiazolo[3,4-b]pyridin-7-amine], 2.5 nM; for `Cc1nc2nonc2c(N)c1Cc1nccc(C#N)n1` [Example 51, 2-(7-amino-5-methyl-[1,2,5]oxadiazolo[3,4-b]pyridin-6-ylmethyl)pyrimidine-4-carbonitrile], 20 nM.
`Cc1nc2nonc2c(N)c1Cc1cccc(C(F)(F)F)n1` [Example 52, 5-Methyl-6-(6-trifluoromethyl-pyridin-2-ylmethyl)-[1,2,5]oxadiazolo[3,4-b]pyridin-7-ylamine] displayed an IC50 of 0.48 nM.
Molecule `Cc1cccc(Cc2c(C)nc3nonc3c2N)n1` [Example 53, 5-Methyl-6-(6-methyl-pyridin-2-ylmethyl)-[1,2,5]oxadiazolo[3,4-b]pyridin-7-ylamine] yielded an IC50 of 2.6 nM.
In turn, `CNC(=O)c1cccc(Cc2c(C)nc3nonc3c2N)n1` [Example 54, 6-(7-Amino-5-methyl-[1,2,5]oxadiazolo[3,4-b]pyridin-6-ylmethyl)-pyridine-2-carboxylic acid methylamide] yielded an IC50 of 0.24 nM.
Under `Cc1nc2nonc2c(N)c1Cc1cccc(C(=O)N(C)C)n1` [Example 55, 6-(7-Amino-5-methyl-[1,2,5]oxadiazolo[3,4-b]pyridin-6-ylmethyl)-pyridine-2-carboxylic Acid Dimethylamide] stands 3.9 nM; under `Cc1nc2nonc2c(N)c1Cc1cccc(C(N)=O)n1` [Example 56, 6-(7-Amino-5-methyl-[1,2,5]oxadiazolo[3,4-b]pyridin-6-ylmethyl)-pyridine-2-carboxylic Acid Amide], 0.72 nM.
For `Cc1nc2nonc2c(N)c1Cc1cccc(-c2ccco2)n1` [Example 57, 6-(6-Furan-2-yl-pyridin-2-ylmethyl)-5-methyl-[1,2,5]oxadiazolo[3,4-b]pyridin-7-ylamine] the value was 0.1 nM; for `Cc1nc2nonc2c(N)c1Cc1ccccn1` [Example 58, 5-methyl-6-[(pyridin-2-yl)methyl]-[1,2,5]oxadiazolo[3,4-b]pyridin-7-amine], 2.8 nM; for `Cc1nc2nonc2c(N)c1Cc1cccc(-c2cncn2C)n1` [Example 59, 5-Methyl-6-[6-(3-methyl-3H-imidazol-4-yl)-pyridin-2-ylmethyl]-[1,2,5]oxadiazolo[3,4-b]pyridin-7-ylamine], 0.34 nM.
For the molecule `Cc1nc2nonc2c(N)c1Cc1cccc(-c2c(C)noc2C)n1` [Example 60, 6-[6-(3,5-Dimethyl-isoxazol-4-yl)-pyridin-2-ylmethyl]-5-methyl-[1,2,5]oxadiazolo[3,4-b]pyridin-7-ylamine], it took 0.48 nM to reach half-maximal inhibition (IC50).
Under `Cc1nc2nonc2c(N)c1Cc1cccc(-c2cn(C)nc2C(F)(F)F)n1` [Example 61, 5-Methyl-6-[6-(1-methyl-3-trifluoromethyl-1H-pyrazol-4-yl)-pyridin-2-ylmethyl]-[1,2,5]oxadiazolo[3,4-b]pyridin-7-ylamine] stands 0.29 nM.
Under `Cc1nc2nonc2c(N)c1Cc1cccc(-c2c[nH]nc2C(F)(F)F)n1` [Example 62, 5-Methyl-6-[6-(3-trifluoromethyl-1H-pyrazol-4-yl)-pyridin-2-ylmethyl]-[1,2,5]oxadiazolo[3,4-b]pyridin-7-ylamine] stands 0.21 nM.
Under `Cc1nc2nonc2c(N)c1Cc1cccc(C(C)(C)C#N)n1` [Example 63, 2-[6-(7-Amino-5-methyl-[1,2,5]oxadiazolo[3,4-b]pyridin-6-ylmethyl)-pyridin-2-yl]-2-methyl-propionitrile] stands 0.48 nM; under `Cc1nc2nonc2c(N)c1Cc1cccc(C2(C#N)CCCC2)n1` [Example 64, 1-[6-(7-Amino-5-methyl-[1,2,5]oxadiazolo[3,4-b]pyridin-6-ylmethyl)-pyridin-2-yl]-cyclopentanecarbonitrile], 0.1 nM.
As for `Cc1nc2nonc2c(N)c1Cc1ccc(-c2cnn3c2CCC3)c(N)n1` [Example 65, 6-[6-Amino-5-(5,6-dihydro-4H-pyrrolo[1,2-b]pyrazol-3-yl)-pyridin-2-ylmethyl]-5-methyl-[1,2,5]oxadiazolo[3,4-b]pyridin-7-ylamine], the IC50 worked out at 0.29 nM.
Under `Cc1nc2nonc2c(N)c1Cc1ccc(-c2c(C)noc2C)c(N)n1` [Example 66, 6-[6-Amino-5-(3,5-dimethyl-isoxazol-4-yl)-pyridin-2-ylmethyl]-5-methyl-[1,2,5]oxadiazolo[3,4-b]pyridin-7-ylamine] stands 0.14 nM; under `Cc1nc2nonc2c(N)c1Cc1ccc(-c2cncs2)c(N)n1` [Example 67, 6-(6-Amino-5-thiazol-5-yl-pyridin-2-ylmethyl)-5-methyl-[1,2,5]oxadiazolo[3,4-b]pyridin-7-ylamine], 0.05 nM; under `Cc1cnn(C)c1-c1ccc(Cc2c(C)nc3nonc3c2N)nc1N` [Example 68, 6-[6-Amino-5-(2,4-dimethyl-2H-pyrazol-3-yl)-pyridin-2-ylmethyl]-5-methyl-[1,2,5]oxadiazolo[3,4-b]pyridin-7-ylamine], 0.11 nM.
For `Cc1nc2nonc2c(N)c1Cc1ccc(-c2cnccn2)c(N)n1` [Example 69, 6-(6-Amino-5-pyrazin-2-yl-pyridin-2-ylmethyl)-5-methyl-[1,2,5]oxadiazolo[3,4-b]pyridin-7-ylamine] the value was 0.58 nM; for `Cc1nc2nonc2c(N)c1Cc1ccc(OC(F)F)c(C#N)n1` [Example 70, 6-(7-Amino-5-methyl-[1,2,5]oxadiazolo[3,4-b]pyridin-6-ylmethyl)-3-difluoromethoxy-pyridine-2-carbonitrile], 0.082 nM; for `Cc1nc2nonc2c(N)c1Cc1ccc(Br)c(C#N)n1` [Example 71, 6-(7-Amino-5-methyl-[1,2,5]oxadiazolo[3,4-b]pyridin-6-ylmethyl)-3-bromopyridine-2-carbonitrile], 0.22 nM.
For `Cc1nc2nonc2c(N)c1Cc1ccc(C#N)c(F)n1` [Example 72, 6-(7-Amino-5-methyl-[1,2,5]oxadiazolo[3,4-b]pyridin-6-ylmethyl)-2-fluoro-nicotinonitrile] the value was 1.1 nM; for `Cc1nc2nonc2c(N)c1Cc1ccc(C#N)c(OC(F)F)n1` [Example 73, 6-(7-Amino-5-methyl-[1,2,5]oxadiazolo[3,4-b]pyridin-6-ylmethyl)-2-difluoromethoxy-nicotinonitrile], 0.33 nM; for `Cc1nc2nonc2c(N)c1Cc1cc(C(F)(F)F)c(C#N)cn1` [Example 74, 6-(7-Amino-5-methyl-[1,2,5]oxadiazolo[3,4-b]pyridin-6-ylmethyl)-4-trifluoromethyl-nicotinonitrile], 2 nM.
In turn, `Cc1nc2nonc2c(N)c1Cc1ncc(C(F)(F)F)c(C#N)n1` [Example 75, 2-(7-amino-5-methyl-[1,2,5]oxadiazolo[3,4-b]pyridin-6-ylmethyl)-5-(trifluoromethyl)pyrimidine-4-carbonitrile] had an IC50 of 2.7 nM.
For `Cc1nc2nonc2c(N)c1Cc1cc(C#N)c(C#N)cn1` [Example 76, 6-(7-amino-5-methyl-[1,2,5]oxadiazolo[3,4-b]pyridin-6-ylmethyl)pyridine-3,4-dicarbonitrile] the value was 14 nM.
